Experimental data as given in patent US11925629B2, “Heterocyclic inhibitors of ERK1 and ERK2 and their use in the treatment of cancer” (Asana Biosciences, LLC, priority 2015, dated 2024).
Structures can show the parent of a compound that is named as a salt. Where two headings read alike, the source gives them in different places.

Key:
[1] = tested on: HCT116 (colorectal carcinoma, K Ras G13D) cells; experiment: Cell proliferation (Alamar Blue) assay, HCT116; type: cell-based, human
Summary of the method: (§1)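 Fluorescence read-out (ex 540 nm, em 590 nm) after 1-3 h with 1× Alamar Blue, following 72 h compound exposure at 37° C./5% CO2. Compounds tested at typically 0.0005 to 10 uM, 3-fold steps; IC50 by sigmoidal dose-response (variable slope).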

ERK1 = molecular target: T1, ERK1 (Homo sapiens, UniProt P27361); experiment: ERK1 HTRF (biochemical) assay
T1 construct: purchased Jubilant Biosys
Experimental: (§2) ERK1 and ERK2 HTRF (Biochemical) Assays
These assays employed a homogeneous time resolved fluorescence (HTRF) technique. […] The plate was incubated at room temperature for 60 min with shaking. […] The IC50 values (half maximal inhibitory concentration values) were subsequently determined using a sigmoidal dose-response curve (variable slope) in GraphPad Prism® 5 software.

ERK2 = molecular target: T2, ERK2 (Homo sapiens, UniProt P28482); experiment: ERK2 HTRF (biochemical) assay
T2 construct: purchased Jubilant Biosys
Experimental: as §2
These assays employed a homogeneous time resolved fluorescence (HTRF) technique. The compounds were serially diluted by half-log with concentrations ranging from 0.0005 to 10 uM in the assay buffer (50 mM Tris pH=7.5, 1 mM EGTA, 2 mM DTT, 10 mM MgCl2, 0.100 Tween-20) and 20 uL of substrate-ATP mix [1 uM Biotin-LC-Myelin Basic Protein (MBP) derivatized Peptide (Anaspec)-24 uM ATP (Sigma)] was added to each well of the assay plate. Then 10 uL of enzyme mix [25 nM ERK1 or ERK2 (Jubilant Biosys) in assay buffer] was added to each well. The plate was incubated at room temperature for 60 min with shaking. The HTRF mix [625 nM LANCER Ultra Europium-anti-phospho-MBP (Perkin Elmer) and 2 nM Phycolink® Streptavidin-Allophycocyanin (SA-APC) (Prozyme) in HTRF buffer (50 mM Tris-HCl pH=7.5, 100 mM NaCl, 0.1% BSA, 0.05% Tween20, 0.5 mM EDTA)] was prepared and 75 uL of this mix was added to the HTRF plate. After incubation for 60 min at room temperature, 10 uL of the reaction mixture was transferred to the HTRF assay plate and incubated for 45 min at room temperature with shaking. Plate was read using Pherastar in HTRF mode (excitation 337 nm, emission 665 & 620 nm). The IC50 values (half maximal inhibitory concentration values) were subsequently determined using a sigmoidal dose-response curve (variable slope) in GraphPad Prism® 5 software.

[2] = tested on: HT-29 (colorectal carcinoma, B-RafV600E) cells; experiment: Cell proliferation (Alamar Blue) assay, HT-29; type: cell-based, human; conditions: Homo sapiens, HT-29, HT29 cells
Summary of the method: as §1

[3] = tested on: phosphorylation of RSK1(S380) (the downstream target of ERK1/2); experiment: Phospho-RSK1(S380) ELISA assay in HT-29 cells; type: cell-based, human; conditions: read-out: Mechanistic Cell Assay RSK1 Phos HT29 IC50
Summary of the method: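 IC50 values derive from a variable-slope sigmoidal fit of sandwich-ELISA signal (450 nm) for RSK1 Ser380 phosphorylation. The cells were B-RafV600E HT-29 colorectal line, exposed to serially diluted compound for 2 h after overnight seeding, then lysed at 4° C.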

[4] = Homo sapiens, HCT-116, HCT116 cells
[5] = Homo sapiens, HT-29, HT29 cells, phospho-RSK1(S380)
[6] = Homo sapiens, HT-29, HT29 cells

T1 sequence (P27361 whole entry): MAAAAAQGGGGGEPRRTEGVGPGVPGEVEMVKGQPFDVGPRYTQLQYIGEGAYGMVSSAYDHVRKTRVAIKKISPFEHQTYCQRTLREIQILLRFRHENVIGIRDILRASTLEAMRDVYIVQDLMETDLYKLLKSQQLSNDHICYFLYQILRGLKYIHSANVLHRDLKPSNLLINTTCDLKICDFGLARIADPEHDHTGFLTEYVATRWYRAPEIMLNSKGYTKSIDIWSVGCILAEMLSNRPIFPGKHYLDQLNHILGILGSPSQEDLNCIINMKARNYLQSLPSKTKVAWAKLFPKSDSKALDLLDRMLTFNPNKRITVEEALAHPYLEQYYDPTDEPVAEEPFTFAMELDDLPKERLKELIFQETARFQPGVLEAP
T2 sequence (P28482 whole entry): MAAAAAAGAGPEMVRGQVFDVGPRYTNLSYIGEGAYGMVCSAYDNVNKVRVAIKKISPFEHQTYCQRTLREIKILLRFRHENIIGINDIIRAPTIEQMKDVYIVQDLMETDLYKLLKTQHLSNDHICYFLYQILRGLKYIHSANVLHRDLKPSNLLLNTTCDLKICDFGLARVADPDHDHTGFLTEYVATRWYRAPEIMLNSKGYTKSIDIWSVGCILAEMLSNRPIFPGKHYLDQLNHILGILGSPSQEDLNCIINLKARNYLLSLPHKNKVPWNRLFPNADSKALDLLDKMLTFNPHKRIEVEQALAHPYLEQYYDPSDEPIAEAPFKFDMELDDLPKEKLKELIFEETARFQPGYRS

Row | Compound | IC50 [1, 4] [nM] | IC50 (ERK1; HTRF biochemical assay) [nM] | IC50 (ERK2; HTRF biochemical assay) [nM] | IC50 [2] [nM] | IC50 [3, 5] [nM] | IC50 (ERK1; HTRF) [nM] | IC50 (ERK2; HTRF) [nM] | IC50 [3, 6] [nM] | IC50 ([1]; HCT116 cells) [nM] | IC50 ([3]; HT29 cells, phospho-RSK1(S380)) [nM]
1 | Cc1cnc(NC2CC(F)(F)C2)nc1-n1cnc(C(=O)N[C@H](CN)c2cccc(Cl)c2)c1 [Compound #259, (S)—N-(2-Amino-1-(3-chlorophenyl)ethyl)-1-(2-((3,3-difluorocyclobutyl)amino)-5-methylpyrimidin-4-yl)-1H-imidazole-4-carboxamide] | ≤ 100 | < 50 | ≤ 50 | 100 to 250 | 100 to 250 | – | – | – | – | –
2 | Cc1cnc(NC2CCOCC2)nc1-n1cnc(C(=O)N[C@H](CN)c2cc(F)cc(Cl)c2)c1 [Compound #275, (S)—N-(2-Amino-1-(3-chloro-5-fluorophenyl)ethyl)-1-(5-methyl-2-((tetrahydro-2H-pyran-4-yl)amino)pyrimidin-4-yl)-1H-imidazole-4-carboxamide] | ≤ 100 | < 50 | ≤ 50 | ≤ 100 | ≤ 100 | – | – | – | – | –
3 | Cc1cnc(NC2CCOCC2)nc1-n1cnc(C(=O)NCc2cc(F)cc(Cl)c2CO)c1 [Compound #297, N-(3-Chloro-5-fluoro-2-(hydroxymethyl)benzyl)-1-(5-methyl-2-((tetrahydro-2H-pyran-4-yl)amino)pyrimidin-4-yl)-1H-imidazole-4-carboxamide] | 100 to 250 | < 50 | ≤ 50 | ≤ 100 | 250 to 500 | – | – | – | – | –
4 | Cc1cnc(NC2CCOCC2)nc1-n1cnc(C(=O)N[C@H](CN)c2cccc(Cl)c2)c1 [Compound #298, (S)—N-(2-Amino-1-(3-chlorophenyl)ethyl)-1-(5-methyl-2-((tetrahydro-2H-pyran-4-yl)amino)pyrimidin-4-yl)-1H-imidazole-4-carboxamide hydrochloride salt] | – | < 50 | ≤ 50 | – | – | – | – | – | – | –
5 | Cc1cnc(Nc2ccc3c(c2)OC(F)(F)O3)cc1-n1cnc(C(=O)NC(CO)c2ccccc2)c1 (centres unmarked) [Example 86, 1-(2-((2,2-difluoro-benzo[d][1,3]dioxol-5-yl)-amino)-5-methyl-pyridin-4-yl)-N-(2-hydroxy-1-phenyl-ethyl)-1H-imidazole-4-carboxamide] | > 2500 | 50 to 100 | 50 to 100 | > 2500 | – | – | – | – | – | –
6 | Cc1cnc(Nc2ccccn2)cc1-n1ccc(C(=O)NC(CO)c2ccccc2)c1 (centres unmarked) [Example 149, N-(2-hydroxy-1-phenylethyl)-1-(5-methyl-2-(pyridin-2-ylamino)pyridin-4-yl)-1H-pyrrole-3-carboxamide] | > 2500 | 50 to 100 | ≤ 50 | > 2500 | > 2500 | – | – | – | – | –
7 | Cc1cnc(NC2CCOCC2)nc1-n1cnc(C(=O)NC(CN)c2cc(F)cc(Cl)c2)c1 (centres unmarked) [Example 236, N-(2-amino-1-(3-chloro-5-fluorophenyl)ethyl)-1-(5-methyl-2-((tetrahydro-2H-pyran-4-yl)amino)pyrimidin-4-yl)-1H-imidazole-4-carboxamide] | ≤ 100 | < 50 | ≤ 50 | ≤ 100 | ≤ 100 | – | – | – | – | –
8 | Cc1cccc(CNC(=O)c2cn(-c3nc(NC4CCOCC4)ncc3C)cn2)n1 [Example 279, 1-(5-methyl-2-((tetrahydro-2H-pyran-4-yl)amino)pyrimidin-4-yl)-N-((6-methylpyridin-2-yl)methyl)-1H-imidazole-4-carboxamide] | 500 to 2500 | < 50 | ≤ 50 | – | 100 to 250 | – | – | – | – | –
9 | Cc1cnc(N[C@H]2CCOC2)nc1-n1cnc(C(=O)NC(CN)c2cc(F)cc(Cl)c2)c1 (stereo partly drawn) [Example 282, N-(2-amino-1-(3-chloro-5-fluorophenyl)ethyl)-1-(5-methyl-2-(((S)-tetrahydrofuran-3-yl)amino)pyrimidin-4-yl)-1H-imidazole-4-carboxamide] | ≤ 100 | < 50 | ≤ 50 | ≤ 100 | ≤ 100 | – | – | – | – | –
10 | Cc1cnc(N[C@H]2CCOC2)nc1-n1cnc(C(=O)NCc2cccc(Cl)c2F)c1 [Example 315, (S)-N-(3-chloro-2-fluorobenzyl)-1-(5-methyl-2-((tetrahydrofuran-3-yl)amino)pyrimidin-4-yl)-1H-imidazole-4-carboxamide] | > 2500 | – | – | > 2500 | – | < 50 | ≤ 50 | > 2500 | – | –
11 | Cc1cnc(N[C@H]2CCOC2)nc1-n1cnc(C(=O)NCc2c(F)cccc2F)c1 [Example 316, (S)-N-(2,6-difluorobenzyl)-1-(5-methyl-2-((tetrahydrofuran-3-yl)amino)pyrimidin-4-yl)-1H-imidazole-4-carboxamide] | > 2500 | – | – | > 2500 | – | 500 to 2500 | 100 to 500 | > 2500 | – | –
12 | Cc1cnc(N[C@H]2CCOC2)nc1-n1cnc(C(=O)NCc2cccc(C(F)(F)F)c2Cl)c1 [Example 317, (S)-N-(2-chloro-3-(trifluoromethyl)benzyl)-1-(5-methyl-2-((tetrahydrofuran-3-yl)amino)pyrimidin-4-yl)-1H-imidazole-4-carboxamide] | > 2500 | – | – | > 2500 | – | 50 to 100 | ≤ 50 | > 2500 | – | –
13 | Cc1cnc(N[C@H]2CCOC2)nc1-n1cnc(C(=O)NCc2cccc(Cl)c2Cl)c1 [Example 319, (S)-N-(2,3-dichlorobenzyl)-1-(5-methyl-2-((tetrahydrofuran-3-yl)amino)pyrimidin-4-yl)-1H-imidazole-4-carboxamide] | > 2500 | – | – | > 2500 | – | < 50 | ≤ 50 | 500 to 2500 | – | –
14 | Cc1cnc(N[C@H]2CCOC2)nc1-n1cnc(C(=O)NCc2ccc(C(F)(F)F)c(F)c2)c1 [Example 321, (S)-N-(3-fluoro-4-(trifluoromethyl)benzyl)-1-(5-methyl-2-((tetrahydrofuran-3-yl)amino)pyrimidin-4-yl)-1H-imidazole-4-carboxamide] | > 2500 | – | – | > 2500 | – | 50 to 100 | ≤ 50 | 500 to 2500 | – | –
15 | Cc1cnc(N[C@H]2CCOC2)nc1-n1cnc(C(=O)NCc2c(Cl)cccc2C(F)(F)F)c1 [Example 322, (S)-N-(2-chloro-6-(trifluoromethyl)benzyl)-1-(5-methyl-2-((tetrahydrofuran-3-yl)amino)pyrimidin-4-yl)-1H-imidazole-4-carboxamide] | > 2500 | – | – | > 2500 | – | 500 to 2500 | 500 to 2500 | > 2500 | – | –
16 | Cc1cccc(CNC(=O)c2cn(-c3nc(N[C@H]4CCOC4)ncc3C)cn2)c1 [Example 323, (S)-1-(5-methyl-2-((tetrahydrofuran-3-yl)amino)pyrimidin-4-yl)-N-(3-methylbenzyl)-1H-imidazole-4-carboxamide] | > 2500 | – | – | > 2500 | – | < 50 | ≤ 50 | 250 to 500 | – | –
17 | CCC(=O)OCc1c(Cl)cccc1CNC(=O)c1cn(-c2nc(N[C@H]3CCOC3)ncc2C)cn1 [Example 346, (S)-2-chloro-6-((1-(5-methyl-2-((tetrahydrofuran-3-yl)amino)pyrimidin-4-yl)-1H-imidazole-4-carboxamido)-methyl)benzyl-propionate] | – | – | – | – | – | 50 to 100 | ≤ 50 | – | – | –
18 | Cc1cnc(N[C@H]2CCOC2)nc1-n1cnc(C(=O)NC(C)(C)c2cccc(Cl)c2CO)c1 [Example 347, (S)-N-(2-(3-chloro-2-(hydroxymethyl)-phenyl)propan-2-yl)-1-(5-methyl-2-((tetrahydrofuran-3-yl)amino)pyrimidin-4-yl)-1H-imidazole-4-carboxamide] | – | – | – | – | – | 100 to 500 | 50 to 100 | – | – | –
19 | N-(1-(3-chlorophenyl)-2-hydroxypropyl)-1-(5-methyl-2-((tetrahydro-2H-pyran-4-yl)amino)pyrimidin-4-yl)-1H-imidazole-4-carboxamide (isomer #1) [Example 253] | – | < 50 | ≤ 50 | – | – | – | – | – | > 2500 | 500 to 2500
